According to US9884821B2, “N1-cyclic amine-N5-substituted biguanide derivatives, methods of preparing the same and pharmaceutical composition comprising the same” (IMMUNOMET THERAPEUTICS INC., priority 2013, dated 2018):

Key:
[1] = tested on: AMPK; assay: AMPK activation effect (AMPK [pT172] ELISA) in MCF7 cells; type: cell-based, human; conditions: 24 hours; for AMPK activation effect (%) 10 μM / AMPK activation effect (%) 50 μM / AMPK activation effect (%) 5 μM: AMPKα Thr172 phosphorylation relative to untreated cells; for AC150: concentration at which AMPK activation reached 150%
Procedure, shortened: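 MCF7 cells in DMEM/10% FBS were treated 24 h with compounds at 5, 10 and 50 uM. Lysates (20 μg protein) were assayed by ELISA for AMPKα Thr172 phosphorylation as the activation read-out.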

[2] = tested on: HCT116 cells; assay: Effect of inhibiting cancer cell proliferation (MTT) in HCT116 cells; type: cell-based, human; conditions: for inhibition at 100 µM: read-out: Cell growth inhibition (%) at 100 μM; for inhibition at 25 µM: read-out: Cell growth inhibition (%) at 25 μM
Procedure, shortened: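 HCT116 colorectal cells (about 5,000 per well, DMEM with 10% FBS) treated with 100, 25, 6.25, 1.56 or 0.39 μM compound for 48 h. MTT added for 3 h, formazan read at 560 nm; GIC50 taken from viability relative to untreated cells.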

[3] = Homo sapiens, HCT-116, 48 h, 100 μM

Compound | AMPK activation effect (%) 10 μM [1] [%] | AC150 [1] [µM] | GI50 ([2]; Homo sapiens, HCT-116, 48 h) [µM] | inhibition at 100 µM [2, 3] [%] | AMPK activation effect (%) 50 μM [1] [%] | AMPK activation effect (%) 5 μM ([1]; hydrochloride) [%] | AMPK activation effect (%) 10 μM ([1]; hydrochloride) [%] | AC150 ([1]; hydrochloride) [µM] | inhibition at 25 µM ([2]; Homo sapiens, HCT-116, 48 h) [%] | AMPK activation effect (%) 5 μM [1] [%] | Cell growth inhibition (%) at 100 μM ([2]; 100 μM, 48 hours) [%] | GI50 ([2]; 48 hours) [µM]
Cl.N=C(NC(=N)N1CC=CCC1)Nc1ccc(C(F)(F)F)cc1 [Example 29, N1-1,2,3,6-tetrahydropyridine-N5-(4-trifluoromethyl)phenyl biguanide hydrochloride] | 551 | 1.3 | 9.5 | 100 | – | – | – | – | – | – | – | –
Cl.N=C(NCc1cccc(C(F)(F)F)c1)NC(=N)N1CC=CCC1 [Example 57, N1-1,2,3,6-tetrahydropyridine-N5-(3-trifluoromethyl)benzyl biguanide hydrochloride] | 279 | 2.7 | 26.9 | 97.8 | 579 | – | – | – | – | – | – | –
CCCCNC(=N)NC(=N)N1CC=CCC1.Cl [Example 59, N1-1,2,3,6-tetrahydropyridine-N5-butyl biguanide hydrochloride] | 104 | 16.6 | 141 | 44.5 | 283 | – | – | – | – | – | – | –
CC1=CCN(C(=N)NC(=N)Nc2ccc(Br)cc2)C1.Cl [Example 21, N1-(3-methyl)-1,2-dihydropyrrole-N5-(4-bromo)phenyl biguanide hydrochloride] | 156 | 11.9 | 10.4 | 99.4 | – | – | – | – | – | – | – | –
CC1CCCN(C(=N)NC(=N)Nc2ccc(F)c(C(F)(F)F)c2)C1.Cl (centres unmarked) [Example 71, N1-(3-methyl)piperidine-N5-(4-fluoro, 3-trifluoromethyl)phenyl biguanide hydrochloride] | – | – | 5.7 | – | – | 259 | 430 | 1.6 | 100 | – | – | –
CC1CCCC(C)N1C(=N)NC(=N)Nc1ccc(F)cc1.Cl (centres unmarked) [Example 98, N1-(2,6-dimethyl)piperidine-N5-(4-fluoro)phenyl biguanide hydrochloride] | 244 | 2.8 | 45.4 | – | – | – | – | – | 28.2 | 239 | – | –
Cl.N=C(NC(=N)N1CC=CCC1)Nc1ccc(OC(F)(F)F)c(Cl)c1 [Example 11, N1-1,2,3,6-tetrahydropyridine-N5-(3-chloro,4-trifluoromethoxy) phenyl biguanide hydrochloride] | 637 | 1.4 | 3 | 98 | – | – | – | – | – | – | – | –
CC1CCCN(C(=N)NC(=N)Nc2ccc(F)cc2)C1.Cl (centres unmarked) [Example 67, N1-(3-methyl)piperidine-N5-(4-fluoro)phenyl biguanide hydrochloride] | 427 | 1.6 | 9.2 | – | – | – | – | – | 100 | 258 | – | –
Cl.N=C(NC(=N)N1CC=CC1)Nc1ccc(C(F)(F)F)c(F)c1 [Example 47, N1-1,2-dihydropyrrole-N5-(3-fluoro, 4-trifluoromethyl)phenyl biguanide hydrochloride] | 758 | 1.0 | 10.8 | 100 | – | – | – | – | – | – | – | –
Cl.N=C(NC(=N)N1CC=CCC1)Nc1ccccc1 [Example 39, N1-1,2,3,6-tetrahydropyridine-N5-phenyl biguanide hydrochloride] | 96 | 67.2 | 124 | 39.8 | 138 | – | – | – | – | – | – | –
Cl.N=C(NC(=N)N1CC=CC1)Nc1ccc(F)cc1 [Example 7, N1-1,2-dihydropyrrole-N5-(4-fluoro)phenyl biguanide hydrochloride] | 94 | >50 | > 100 | 19.8 | 109 | – | – | – | – | – | – | –
COc1ccc(NC(=N)NC(=N)N2CC=C(C)C2)cc1.Cl [Example 22, N1-(3-methyl)-1,2-dihydropyrrole-N5-(4-methoxyl)phenyl biguanide hydrochloride] | 116 | 24.5 | 18.6 | 37.1 | 209 | – | – | – | – | – | – | –
COc1cccc(NC(=N)NC(=N)N2CC=CC2)c1.Cl [Example 43, N1-1,2-dihydropyrrole-N5-(3-methoxyl)phenyl biguanide hydrochloride] | 200 | 4.7 | 114 | 44.9 | 466 | – | – | – | – | – | – | –
Cl.N=C(NC(=N)N1CC=CC1)Nc1ccc(Cl)cc1 [Example 8, N1-1,2-dihydropyrrole-N5-(4-chloro)phenyl biguanide hydrochloride] | 139 | 8.3 | 42.8 | 99.1 | 515 | – | – | – | – | – | – | –
CC1CCCCN1C(=N)NC(=N)Nc1ccc(OC(F)(F)F)cc1.Cl (centres unmarked) [Example 72, N1-(2-methyl)piperidine-N5-(4-trifluoromethoxy)phenyl biguanide hydrochloride] | 386 | 2.0 | 8 | – | – | – | – | – | 100 | 210 | – | –
CC1CCCN(C(=N)NC(=N)Nc2ccc(C(F)(F)F)c(F)c2)C1.Cl (centres unmarked) [Example 70, N1-(3-methyl)piperidine-N5-(3-fluoro, 4-trifluoromethyl)phenyl biguanide hydrochloride] | 602 | 0.9 | 3.9 | – | – | – | – | – | 100 | 365 | – | –
Cl.N=C(NC(=N)N1CC=CC1)Nc1ccc(C(F)(F)F)cc1 [Example 5, N1-1,2-dihydropyrrole-N5-(4-trifluoromethyl)phenyl biguanide hydrochloride] | 235 | 2.8 | 18 | 99.7 | 223 | – | – | – | – | – | – | –
CC1=CCN(C(=N)NC(=N)NCc2ccc(Cl)c(C(F)(F)F)c2)C1.Cl [Example 27, N1-(3-methyl)-1,2-dihydropyrrole-N5-(4-chloro, 3-trifluoromethyl)benzyl biguanide hydrochloride] | 119 | 13.5 | 33.5 | 96.6 | 316 | – | – | – | – | – | – | –
COc1cc(NC(=N)NC(=N)N2CC=CCC2)cc(OC)c1.Cl [Example 38, N1-1,2,3,6-tetrahydropyridine-N5-(3,5-dimethoxy)phenyl biguanide hydrochloride] | 97 | >50 | 108 | 47.8 | 117 | – | – | – | – | – | – | –
Cl.N=C(NC(=N)N1CC=CC1)Nc1ccc(OC(F)(F)F)cc1 [Example 4, N1-1,2-dihydropyrrole-N5-(4-trifluoromethoxy)phenyl biguanide hydrochloride] | 201 | 5.0 | 19.1 | 99.7 | 584 | – | – | – | – | – | – | –
N1-1,2-dihydropyrrole-N5-(4-methyl)phenyl biguanide hydrochloride [Example 50] | 317 | 1.4 | – | – | 440 | – | – | – | – | – | 46.0 | 117
Cl.N=C(NC(=N)N1CC=CC1)Nc1ccc(F)c(C(F)(F)F)c1 [Example 46, N1-1,2-dihydropyrrole-N5-(4-fluoro, 3-trifluoromethyl)phenyl biguanide hydrochloride] | 448 | 1.6 | 12 | 100 | – | – | – | – | – | – | – | –
CC1CCCN(C(=N)NC(=N)Nc2ccc(OC(F)(F)F)c(F)c2)C1.Cl (centres unmarked) [Example 75, N1-(3-methyl)piperidine-N5-(3-fluoro, 4-trifluoromethoxy)phenyl biguanide hydrochloride] | 259 | 3.9 | 9.3 | – | – | – | – | – | 100 | 133 | – | –
COc1ccc(NC(=N)NC(=N)N2CC=CC2)cc1.Cl [Example 42, N1-1,2-dihydropyrrole-N5-(4-methoxyl)phenyl biguanide hydrochloride] | 157 | 14.7 | > 100 | 14 | 210 | – | – | – | – | – | – | –
CC1CCCN(C(=N)NC(=N)NCc2cccc(C(F)(F)F)c2)C1.Cl (centres unmarked) [Example 65, N1-(3-methyl)piperidine-N5-(3-trifluoromethyl)benzyl biguanide hydrochloride] | 274 | 2.8 | 18.3 | – | – | – | – | – | 66.7 | 147 | – | –
Cl.N=C(NC(=N)N1CC=CCC1)Nc1ccc(F)cc1 [Example 37, N1-1,2,3,6-tetrahydropyridine-N5-(4-fluoro)phenyl biguanide hydrochloride] | 187 | 4.2 | 135 | 45.3 | 522 | – | – | – | – | – | – | –
